This note sets out measurements from article PMC8224453, “A New PqsR Inverse Agonist Potentiates Tobramycin Efficacy to Eradicate Pseudomonas aeruginosa Biofilms” (Advanced Science, 2021).

Data set [1] in a line: Metabolic stability, rat liver S9. In kind it is in vitro ADME. The note with it: pooled liver S9 fraction, Table S4, n=1, read-out: t1/2 rat liver S9. Here is the method: (§1) For the evaluation of combined phase I and phase II metabolic stability, the compound (1 μM) was incubated with 1 mg/mL pooled liver S9 fraction from the respective species (Xenotech), […]
(§2) 2 mM NADPH, 1 mM UDPGA, 10 mM MgCl2, 5 mM GSH and 0.1 mM PAPS at 37 °C for […]
(§3) 0, 5, 15, 30 or 60 min. The metabolic stability of Testosterone (1 μM) and verapamil (1 μM) […]
(§4) were determined in parallel to confirm the enzymatic activity of the S9 fraction. The […]
(§5) incubation was stopped by precipitation of S9 enzymes with 2 volumes of cold acetonitrile […]
(§6) containing internal standard (750 nM Diphenhydramine). Samples were stored on ice for 10 […]
(§7) min and precipitated protein was removed by centrifugation (10 min, 4 °C, 17,000 g).
(§8) Concentration of the remaining test compound at the different time points was analyzed by […]
(§9) LC-MS/MS (TSQ Quantum Access MAX, Thermo Fisher, Dreieich, Germany) and used to […]
(§10) determine half-life (t1/2). Stability of compound 4 in further S9 fractions are summarized in […]
(§11) Table S4. Metabolic stability studies in various S9 fractions. […]

Data set [2] in a line: Metabolic stability, monkey liver S9. In kind it is in vitro ADME. The note with it: pooled liver S9 fraction, Table S4, read-out: t1/2 monkey liver S9. As for the experimental part: as §1, §2, §3, §4, §5, §6, §7, §8, §9, §10, §11
Data set [3] is described as follows: Mouse MTD, acute single dose toxicity i.v. In kind it is in vivo. The note with it: mice. Here is the method:
Pyruvate. Passages between 35 and 55 were used, medium was changed every 2-3 days. For experiments, cells were harvested using Trypsin/EDTA and seeded on Transwell® inserts 3460 at a density of 1∙105 cells. Cells were grown at air-liquid interface beginning day 3 and used for Transport studies on day 11-13. TEER values exceeded 300 Ω∙cm2 before beginning Transport studies. For experiments, Krebs-Ringer solution with 1% BSA was used and cells were accommodated to the buffer for at least 1h with no decrease in TEER. 200 µL samples were taken in regular intervals from the apical side (time intervals 0, 20, 40, 60, 90, 120, 180, 240 minutes) and replenished with fresh buffer. TEER was monitored during the experiment and epithelial barriers were considered compromised if the TEER fell below 300 during 4 h of experiment duration. […] 50 µL of sample was mixed with 150 µL of ice-cold acetonitrile containing internal standard diphenhydramine (1 µM) and the concentration of compound was analyzed with LC-MS/MS. […]
The in vivo tolerability study was performed on ten-week old female C57BL/6N mice. […] Mice behavior and body weight were monitored over 24 h period. At 24 h post-injection, the mice were euthanized, lungs were collected, and the blood leukocytes as well as the absolute leukocytes (including segented, lymphocytes, monocytes and eosinophiles) were counted to access the tolerability. […]

For the compound `FC(F)(F)c1cc(NCc2cn(-c3ccc(Oc4ccccc4)cc3)nn2)ccn1` [Compound 4], the half-life at 1 μM was determined as 24.2 min in data set [1] and 22.8 ± 6.7 min in data set [2]. In data set [3] (i.v. single dose, after 24 h), the “test dosing up to which no test item related clinical symptoms were observed” value is given as no less than 60 mg/kg. The MTD at 24 h in data set [3] (mouse, in vivo, iv, i.v., read-out: dose up to which well tolerated (maximum tolerated dose study)) was no less than 60 mg/kg.
